Where “and” joins values, the source holds several entries; their conditions need not be identical. Equal values may be shown once. Where a name gives a salt, the structure may show the parent alone.
Legend:
[1] = target: T1, γ-secretase (Notch cleavage activity) (Homo sapiens, UniProt P49768); assay: Cleaved Notch1 Sandwich ELISA (SUP-T1 cell line); type: cell-based; settings: for IC50: SUP-T1 cells, 16 h; for Notch Elisa/Aβ42: ratio Notch Elisa IC50 to Aβ42 IC50
T1 construct: endogenous in cells; host or cells: SUP-T1 cells
Experimental: Cleaved Notch1 Sandwich ELISA.
This assay was used to determine if the compounds of interest inhibit the Notch cleavage activity of γ-secretase in SUP-T1 cell line, which endogenously expresses a truncated Notch receptor fragment that is a viable gamma-secretase substrate. The base medium for this cell line is ATCC-formulated RPMI-1640 Medium with fetal bovine serum to a final concentration of 10%. Prepare dilution of SUP-T1 cells in complete growth medium to 1.0×10^6 cells/mL, seed 1.5 mL per well of each cell dilution into a 6-well plate. Collect cells treated with serial diluted compounds in DMSO after 16 h, then using equal amount of protein isolated from samples to measure Notch intracellular cleavage by PathScan® Sandwich ELISA Kit (Cell Signaling Tech 7194S).

[2] = target: T2, γ-secretase (cleavage of APP, Aβ42) (Homo sapiens, UniProt P49768); assay: Aβ (1-42) cellular assay (Aβ ELISA, HEK AP-GL-T1 6 cells); type: cell-based; settings: for IC50: cellular Aβ42 ELISA, 24 h compound treatment; for inhibition at 1 µM: at 1 μM (concentration in brackets)
T2 construct: endogenous in cells; host or cells: HEK AP-GL-T16 luciferase reporter cells (tetracycline-induced APP substrate)
Experimental: Aβ (1-42) Cellular Assay.
The following assay was used to determine the extent to which the compounds of interest inhibit the cleavage of APP in vivo. AβELISA is a commercial fluorometric kit from Biosource (Invitrogen 89344). Luciferase reporter HEK AP-GL-T1 6 cells were plated at 50,000 cells/well in 96 well plates in DMEM media containing 10% tetracyclin free […], 250 μg/mL zeocin, 200 μg/mL hygromycin, and 5 μg/mL blasticidin. Compounds were added 24 h after plating and APP processing is induced simultaneously by addition of tetracycline. Following a 24 h compound treatment, […] of conditioned cell media is collected, mixed with ELISA diluent buffer containing 2 mM AEBSF and 12 mM o-phenanthroline, and immediately frozen at −80° C. For the ELISA, the samples were brought to room temperature and spun at 5000 rpm for 5 min. Samples ([…]) are incubated in the ELISA plate with […] detection antibody on a shaker at room temperature for 3 h. Wells were then washed 4 times with wash buffer and 100 mL of secondary antibody are added and incubated at room temperature for 30 min. Wells were again washed 4 times with wash buffer and 100 mL of fluorescent substrate solution are added. After 30 minutes of incubation, fluorescent signals are determine on a Gemini reader at ex 460 nm and em 560 nm. The amount of Aβ levels in each sample was determined from a standard curve generated by known concentrations of Aβ peptide run simultaneously with the samples.

Molecule | IC50 [1] | Notch Elisa/Aβ42 [1] | IC50 [2] | other results
CC1CCCC(N(Cc2ccc(C(=O)O)cc2)S(=O)(=O)c2ccc(Cl)cc2)C1 (centres unmarked) [Example 43, 4-((4-Chloro-N-(3-methylcyclohexyl)phenylsulfonamido)methyl)benzoic acid] | 2820 nM and 2730 nM | 19 | 148 nM | –
COC(=O)c1ccc(CN(C2CCCC(C(F)(F)F)C2)S(=O)(=O)c2ccc(Cl)cc2)cc1 (centres unmarked) [Example 49, Methyl 4-((4-chloro-N-(3-(trifluoromethyl)cyclohexyl)phenylsulfonamido)methyl)benzoate] | – | – | 7.3 nM | –
COC(=O)c1ccc(CN(C2CCCCC2F)S(=O)(=O)c2ccc(Cl)nc2)cc1 (centres unmarked) [Example 61, Methyl 4-((6-chloro-N-(2-fluorocyclohexyl)pyridine-3-sulfonamido)methyl)benzoate] | – | – | 10.4 nM | –
CC1CCCCC1N(Cc1ccc(C#N)cc1)S(=O)(=O)c1ccc(Cl)cc1 (centres unmarked) [Example 78, 4-Chloro-N-(4-cyanobenzyl)-N-(2-methylcyclohexyl)benzenesulfonamide] | 879 nM | 63 | 14 nM | –
CC1CCCCC1N(Cc1ccc(C(=O)O)cc1)S(=O)(=O)c1ccc(Cl)nc1 (centres unmarked) [Example 44, 4-((6-Chloro-N-(2-methylcyclohexyl)pyridine-3-sulfonamido)methyl)benzoic acid] | 2980 nM and 2730 nM | 220 | 6.4 nM and 20 nM | –
CN(C)CCNC(=O)c1ccc(CN(C2CCCCC2F)S(=O)(=O)c2ccc(Cl)nc2)cc1 (centres unmarked) [Example 80, 4-((6-Chloro-N-(2-fluorocyclohexyl)pyridine-3-sulfonamido)methyl)-N-(2-(dimethylamino)ethyl)benzamide hydrochloride] | – | – | – | inhibition at 1 µM ([2]; read-out: Aβ42 % Inh): 65%
O=C(O)c1ccc(CN(C2CCCCC2(F)F)S(=O)(=O)c2ccc(Cl)cc2)cc1 (centres unmarked) [Example 76, 4-((4-Chloro-N-(2,2-difluorocyclohexyl)phenylsulfonamido)methyl)benzoic acid] | 5060 nM | 56 | 89.9 nM | –
COCC(C)NC(=O)c1ccc(CN(C2CCCCC2F)S(=O)(=O)c2ccc(Cl)cc2)cc1 (centres unmarked) [Example 85, 4-((4-Chloro-N-(2-fluorocyclohexyl)phenylsulfonamido)methyl)-N-(1-methoxypropan-2-yl)benzamide] | 1180 nM | 89 | 13.3 nM | –
COC(=O)c1ccc(CN(C2CCCCC2F)S(=O)(=O)c2ccc(Cl)cc2)cc1 (centres unmarked) [Example 56, Methyl 4-((4-chloro-N-(2-fluorocyclohexyl)phenylsulfonamido)methyl)benzoate] | – | – | 4.05 nM | –
CN(C)CCNC(=O)c1ccc(CN(C2CCCCC2F)S(=O)(=O)c2ccc(Cl)cc2)cc1 (centres unmarked) [Example 74, 4-((4-Chloro-N-(2-fluorocyclohexyl)phenylsulfonamido)methyl)-N-(2-(dimethylamino)ethyl)benzamide] | 10000 nM | 78 | 130 nM | –
O=C(O)c1ccc(CN(C2CCCC(C(F)(F)F)C2)S(=O)(=O)c2ccc(Cl)nc2)cc1 (centres unmarked) [Example 63, 4-((6-Chloro-N-(3-(trifluoromethyl)cyclohexyl)pyridine-3-sulfonamido)methyl)benzoic acid] | – | – | – | inhibition at 1 µM ([2]; read-out: Aβ42 % Inh): 87%
COC[C@@H](C)NC(=O)c1ccc(CN(C2CCCCC2F)S(=O)(=O)c2ccc(Cl)cc2)cc1 (stereo partly drawn) [Example 88, 4-((4-Chloro-N-(2-fluorocyclohexyl)phenylsulfonamido)methyl)-N-((R)-1-methoxypropan-2-yl)benzamide] | – | – | 7.31 nM | –
O=C(NCCO)c1ccc(CN(C2CCCCC2F)S(=O)(=O)c2ccc(Cl)cc2)cc1 (centres unmarked) [Example 66, 4-((4-Chloro-N-(2-fluorocyclohexyl)phenylsulfonamido)methyl)-N-(2-hydroxyethyl)benzamide] | 1380 nM | 134 | 10.3 nM | –
O=C(O)c1ccc(CN(C2CCCC(C(F)(F)F)C2)S(=O)(=O)c2ccc(Cl)cc2)cc1 (single isomer, unassigned) [Example 52, 4-((4-Chloro-N-(3-(trifluoromethyl)cyclohexyl)phenylsulfonamido)methyl)benzoic acid] | 1880 nM | – | 47.6 nM | Notch Elisa/Aβ42 ([1]; listed as 52/1227C): 40
C[C@@H](CO)NC(=O)c1ccc(CN(C2CCCCC2F)S(=O)(=O)c2ccc(Cl)cc2)cc1 (stereo partly drawn) [Example 89, 4-((4-Chloro-N-(2-fluorocyclohexyl)phenylsulfonamido)methyl)-N—((S)-1-hydroxypropan-2-yl)benzamide] | – | – | 35.4 nM | –
O=C(O)c1ccc(CN(C2CCC(F)CC2)S(=O)(=O)c2ccc(Cl)cc2)cc1 (centres unmarked) [Example 82, 4-((4-Chloro-N-(4-fluorocyclohexyl)phenylsulfonamido)methyl)benzoic acid] | – | – | – | inhibition at 30 µM ([2]; at 30 μM (concentration in brackets), read-out: Aβ42 % Inh): 0%
C[C@H](O)CNC(=O)c1ccc(CN(C2CCCCC2F)S(=O)(=O)c2ccc(Cl)cc2)cc1 (stereo partly drawn) [Example 73, 4-((4-Chloro-N-(2-fluorocyclohexyl)phenylsulfonamido)methyl)-N—((S)-2-hydroxypropyl)benzamide] | 1100 nM | 106 | 10.4 nM | –
COC[C@H](C)NC(=O)c1ccc(CN(C2CCCCC2F)S(=O)(=O)c2ccc(Cl)cc2)cc1 (stereo partly drawn) [Example 86, 4-((4-Chloro-N-(2-fluorocyclohexyl)phenylsulfonamido)methyl)-N—((S)-1-methoxypropan-2-yl)benzamide] | – | – | 103 nM | –
C[C@@H](CO)NC(=O)c1ccc(CN(C2CCCCC2C(F)(F)F)S(=O)(=O)c2ccc(Cl)cc2)cc1 (stereo partly drawn) [Example 69, 4-((4-Chloro-N-(2-(trifluoromethyl)cyclohexyl)phenylsulfonamido)methyl)-N—((S)-1-hydroxypropan-2-yl)benzamide] | 94 nM | 44 | 2.16 nM | –
O=C(O)c1ccc(CN(C2CCCCC2F)S(=O)(=O)c2ccc(Cl)nc2)cc1 (centres unmarked) [Example 62, 4-((6-Chloro-N-(2-fluorocyclohexyl)pyridine-3-sulfonamido)methyl)benzoic acid] | 5200 nM | 26 | 135 nM and 261 nM | –
C[C@H](CO)NC(=O)c1ccc(CN(C2CCCC(C(F)(F)F)C2)S(=O)(=O)c2ccc(Cl)nc2)cc1 (stereo partly drawn) [Example 64, 4-((6-Chloro-N-(3-(trifluoromethyl)cyclohexyl)pyridine-3-sulfonamido)methyl)-N—((R)-1-hydroxypropan-2-yl)benzamide] | 1070 nM | 89 | 12 nM | –
Methyl 3-(4-((4-chloro-N-(2-methylcyclohexyl)phenylsulfonamido)methyl)benzamido)propanoate [Example 35] | – | – | 29.7 nM | –
COC(=O)c1ccc(CN(C2CCCC(C)C2)S(=O)(=O)c2ccc(Cl)cc2)cc1 (centres unmarked) [Example 42, Methyl 4-((4-chloro-N-(3-methylcyclohexyl)phenylsulfonamido)methyl)benzoate] | – | – | 9.44 nM | –
COC(=O)c1ccc(CN(C2CCOCC2)S(=O)(=O)c2ccc(Cl)cc2)cc1 [Example 12, Methyl 4-((4-chloro-N-(tetrahydro-2H-pyran-4-yl)phenylsulfonamido)methyl)-benzoate] | – | – | – | inhibition at 1 µM ([2]; read-out: Aβ42 % Inh): 0%
O=C(O)CNC(=O)c1ccc(CN(C2CCCCC2F)S(=O)(=O)c2ccc(Cl)cc2)cc1 (centres unmarked) [Example 79, 2-(4-((4-Chloro-N-(2-fluorocyclohexyl)phenylsulfonamido)methyl)benzamido)acetic acid] | – | – | 3620 nM | –
COC(=O)c1cc(CN(C2CCOCC2)S(=O)(=O)c2ccc(Cl)cc2)ccc1OC [Example 7, Methyl 5-((4-chloro-N-(tetrahydro-2H-pyran-4-yl)phenylsulfonamido)methyl)-2-methoxybenzoate] | – | – | – | inhibition at 1 µM ([2]; read-out: Aβ42 % Inh): 0%
COC(=O)c1ccc(CN(C2CCCC(C(F)(F)F)C2)S(=O)(=O)c2ccc(Cl)nc2)cc1 (centres unmarked) [Example 70, Methyl 4-((6-chloro-N-(3-(trifluoromethyl)cyclohexyl)pyridine-3-sulfonamido)methyl)benzoate] | – | – | 26.8 nM | –
O=C(NCCN1CCCC1)c1ccc(CN(C2CCCCC2F)S(=O)(=O)c2ccc(Cl)cc2)cc1 (centres unmarked) [Example 87, 4-((4-Chloro-N-(2-fluorocyclohexyl)phenylsulfonamido)methyl)-N-(2-(pyrrolidin-1-yl)ethyl)benzamide] | – | – | 6.91 nM | –
O=C(O)c1ccc(CN([C@@H]2CCCC[C@H]2F)S(=O)(=O)c2ccc(Cl)cc2)cc1 [Example 84, 4-((4-Chloro-N-((1R,2R)-2-fluorocyclohexyl)phenylsulfonamido)methyl)benzoic acid] | – | – | 141 nM | –
